Measurements: patent US10328093B2, “Anthracycline formulations” (CYTRX CORPORATION, priority 2012, dated 2019)
“And” between values parts separate entries of the source, which are not always exact repeats. Equal entries are not always repeated.

Tests used:
[1] = IV bag solution stability study of DOXO-EMCH API (0.9% NaCl, D5W, LR); format: physicochemical; conditions: for solubility: ~2 mg/mL
Description: (§1) To analyze DOXO-EMCH's behavior in solution, a reversed-phase (RP) HPLC method for quantitation of DOXO-EMCH and various impurities and degradation products was utilized. Samples (1.0 μL injection volume) were assayed on an HPLC system fitted with a Phenomenex Gemini C18 column 100×2.0 mm, 3 μm at a flow rate of 0.3 mL/min. The mobile phase used was an acetate/acetonitrile gradient. The degradation product EMCH could not be detected using the above HPLC method, and was therefore determined using a liquid chromatography-mass spectrometry (LC-MS) method.
To obtain baseline data on the stability of DOXO-EMCH at the point of use, a study was designed to determine degradation of DOXO-EMCH when combined with candidate intravenous (IV) bag solutions. IV bag solutions including Dextrose 5% in Water (D5W), Lactated Ringers (LR), and Sodium Chloride Solution 0.9% (Normal Saline; NS) were used. 100 mg of DOXO-EMCH active pharmaceutical ingredient (API) were dissolved in 50 mL of the IV bag solution for a concentration of ˜2 mg/mL DOXO-EMCH API. The IV bag solutions containing API were then aliquoted in glass vials. The vials were stored at 25° C. in a stability chamber for the length of the experiment. Prior to the beginning of the IV bag stability study, all IV bag solutions were tested for pH and the presence of any peaks interfering with DOXO-EMCH or any degradation peaks of interest. Samples were pulled at 0 hr, 2 hr, 4 hr, and 6 hr time intervals and tested for pH and in duplicate by HPLC.
Tables 8-10 below list the results for the IV bag study using 0.9% NaCl, D5W, and Lactated Ringer's Solution. In summary, the 0.9% NaCl and Lactated Ringer's solutions met the goal of less than 3% doxorubicin over 3-5 hours. […] The sample was opaque and precipitated material visibly settled over a 2-hour period. […] The samples were mixed well before dilution of each sample for HPLC assay, but non-homogeneity of these samples is reflected in the DOXO-EMCH recovery values for those two IV bag solutions. […] The pH for D5W was the lowest of all the IV bag solutions tested.

mice = conditions: acute and repeat-dose; cited from earlier work
rats = conditions: acute and repeat-dose; cited from earlier work
[2] = Solubility and stability of lyophilized DOXO-EMCH reconstituted in diluents at 10 mg/mL; format: physicochemical; conditions: for pH: ambient conditions
Description: as §1
Having established preliminary information on DOXO-EMCH's properties when dissolved in NS, LR, and D5W, a follow-up study was designed to evaluate (1) the solubility and stability of DOXO-EMCH in selected diluents upon reconstitution and (2) the subsequent stability of various IV Admixtures. Diluents included Sterile Water for Injection (SWFI), Lactated Ringers Solution (LR), and 50% (v/v) ethanol/SWFI.
The study evaluating solubility and stability of lyophilized DOXO-EMCH reconstituted in SWFI, LR, and 50% (v/v) ethanol/SWFI was conducted using a target DOXO-EMCH concentration of 10 mg/mL. To obtain a 10 mg/mL concentration, 20 mL of diluent was added to a vial containing 200 mg of lyophilized DOXO-EMCH, and the vial was gently swirled to dissolve the contents and obtain a homogeneous mixture. The sample was mixed and visually inspected for complete reconstitution to a clear solution for a) approximately 30 seconds, b) approximately 60 seconds, and c) 120 seconds, then up to a total of 10 minutes. If more than 120 seconds were required for visual clarity, the vial may have been intermittently swirled up to a maximum of 10 minutes. Duplicate vials were prepared for each study. Each vial was assessed 10 minutes and 20 minutes after the addition of reconstitution diluent for visual appearance of the reconstituted solution and sampled at these time points for determination of DOXO-EMCH content, doxorubicin content, and solution pH. If a given diluent was determined to provide acceptable solubilization and stability of the vial contents after 20 minutes at ambient conditions, the diluent proceeded directly to part 2 of the study.
The reconstituted solution was evaluated for color, clarity, and absence of insoluble material in the vial after every 30 seconds of mixing. Following addition of the reconstituted drug product solution to the IV bag, the resulting IV Admixture was evaluated for color, clarity, and absence of any insoluble material immediately after mixing and at each analytical time point. The amount (area %) of the degradation product doxorubicin was determined at each time point.

advanced cancer patients = conditions: Phase 1, 41 advanced cancer patients, cited from earlier work
[3] = ~2 mg/mL API in 0.9% NaCl IV solution, 25° C., 0 hr
[4] = ~2 mg/mL API in 0.9% NaCl IV solution, 25° C., 2 hr
[5] = ~2 mg/mL API in 0.9% NaCl IV solution, 25° C., 4 hr
[6] = ~2 mg/mL API in 0.9% NaCl IV solution, 25° C., 6 hr
[7] = ~2 mg/mL API in D5W IV solution, 25° C., 0 hr
[8] = ~2 mg/mL API in D5W IV solution, 25° C., 2 hr
[9] = ~2 mg/mL API in D5W IV solution, 25° C., 4 hr
[10] = ~2 mg/mL API in D5W IV solution, 25° C., 6 hr
[11] = ~2 mg/mL API in LR IV solution, 25° C., 0 hr
[12] = ~2 mg/mL API in LR IV solution, 25° C., 2 hr
[13] = ~2 mg/mL API in LR IV solution, 25° C., 4 hr
[14] = ~2 mg/mL API in LR IV solution, 25° C., 6 hr

**Q.** Which “doxorubicin over 3-5 hours (goal)” value ([1]; 0.9% NaCl IV solution, 25° C.) does the source give for `COc1cccc2c1C(=O)c1c(O)c3c(c(O)c1C2=O)C[C@@](O)(/C(CO)=N/NC(=O)CCCCCN1C(=O)C=CC1=O)C[C@@H]3O[C@H]1C[C@H](N)[C@H](O)[C@H](C)O1.Cl` [DOXO-EMCH] here?
**A.** Its value is “less than 3%”.

**Q.** What about the “degradation over a 6 hour period” value ([1]; D5W solution, 25° C.) of the same molecule?
**A.** Its value is “significant degradation of DOXO-EMCH and formation of doxorubicin”.

**Q.** And the “doxorubicin over 3-5 hours (goal)” value ([1]; Lactated Ringer's solution, 25° C.)?
**A.** Its value is “less than 3%”.

**Q.** What about the solubility ([1]; in 0.9% NaCl) of the same molecule?
**A.** The solubility was “not completely soluble”.

**Q.** And the solubility ([1]; in D5W)?
**A.** Its solubility is “completely soluble”.

**Q.** And the solubility ([1]; in Lactated Ringer's)?
**A.** The solubility was “not completely soluble”.

**Q.** And the Doxorubicin [1, 3]?
**A.** Its Doxorubicin is 0.3 wt %.

**Q.** What about the pH [1, 3] of the same molecule?
**A.** Its pH is 6.5.

**Q.** And the Doxorubicin [1, 4]?
**A.** Its Doxorubicin is 0.9 wt %.

**Q.** And the pH [1, 4]?
**A.** Its pH is 6.0.

**Q.** And the Doxorubicin [1, 5]?
**A.** The Doxorubicin was 2.1 wt %.

**Q.** And the pH [1, 5]?
**A.** The pH was 5.6.

**Q.** What about the Doxorubicin [1, 6] of the same molecule?
**A.** The Doxorubicin was 2.6 wt %.

**Q.** What about the pH [1, 6] of the same molecule?
**A.** The pH was 5.7.

**Q.** And the Doxorubicin [1, 7]?
**A.** The Doxorubicin was 1.6 wt %.

**Q.** What about the pH [1, 7] of the same molecule?
**A.** The pH was 5.5.

**Q.** What about the Doxorubicin [1, 8] of the same molecule?
**A.** Its Doxorubicin is 5.8 wt %.

**Q.** What about the pH [1, 8] of the same molecule?
**A.** Its pH is 5.0.

**Q.** What about the Doxorubicin [1, 9] of the same molecule?
**A.** The Doxorubicin was 11.2 wt %.

**Q.** What about the pH [1, 9] of the same molecule?
**A.** The pH was 4.9.

**Q.** And the Doxorubicin [1, 10]?
**A.** Its Doxorubicin is 16.8 wt %.

**Q.** And the pH [1, 10]?
**A.** The pH was 4.8.

**Q.** What about the Doxorubicin [1, 11] of the same molecule?
**A.** Its Doxorubicin is 0.2 wt %.

**Q.** And the pH [1, 11]?
**A.** The pH was 6.3.

**Q.** And the Doxorubicin [1, 12]?
**A.** The Doxorubicin was 0.5 wt %.

**Q.** What about the pH [1, 12] of the same molecule?
**A.** Its pH is 6.1.

**Q.** And the Doxorubicin [1, 13]?
**A.** Its Doxorubicin is 0.9 wt %.

**Q.** And the pH [1, 13]?
**A.** The pH was 6.0.

**Q.** What about the Doxorubicin [1, 14] of the same molecule?
**A.** The Doxorubicin was 1.6 wt %.

**Q.** And the pH [1, 14]?
**A.** Its pH is 5.9.

**Q.** What about the “tolerance compared to doxorubicin” value (mice) of the same molecule?
**A.** The value was “significantly higher tolerance”.

**Q.** And the “tolerance compared to doxorubicin” value (rats)?
**A.** Its value is “significantly higher tolerance”.

**Q.** What about the solubility ([2]; in ethanol:water) of the same molecule?
**A.** The solubility was “completely soluble”.

**Q.** And the “time to go into solution” value ([2]; in ethanol:water)?
**A.** Its value is “within less than a minute”.

**Q.** And the “mixing time until solutions appeared visually clear” value ([2]; reconstituted in 50:50 ethanol:water at 10 mg/mL)?
**A.** Its value is 120 s.

**Q.** And the pH ([2]; reconstituted in 50:50 ethanol:water at 10 mg/mL, 10 minutes)?
**A.** The pH was 5.9.

**Q.** And the pH ([2]; reconstituted in 50:50 ethanol:water at 10 mg/mL, 20 minutes)?
**A.** The pH was 5.7 and 5.8.

**Q.** What about the “mixing time until solutions appeared visually clear” value ([2]; reconstituted in LR at 10 mg/mL) of the same molecule?
**A.** Its value is 120 s.

**Q.** What about the pH ([2]; reconstituted in LR at 10 mg/mL, 10 minutes) of the same molecule?
**A.** Its pH is 6.0 and 5.9.

**Q.** What about the pH ([2]; reconstituted in LR at 10 mg/mL, 20 minutes) of the same molecule?
**A.** Its pH is 5.9 and 5.8.

**Q.** And the pH ([2]; reconstituted in SWFI at 10 mg/mL, 10 minutes)?
**A.** Its pH is 5.4 and 5.3.

**Q.** What about the pH ([2]; reconstituted in SWFI at 10 mg/mL, 20 minutes) of the same molecule?
**A.** Its pH is 5.1 and 5.5.

**Q.** What about the “mixing time until solutions appeared visually clear” value ([2]; reconstituted in SWFI at 10 mg/mL, a few undissolved particles remained) of the same molecule?
**A.** The value was 90 to 120 s.

**Q.** And the tumor response (advanced cancer patients; in some cases)?
**A.** The tumor response was “induced tumor regression”.

**Q.** And the clinical safety (advanced cancer patients)?
**A.** Its clinical safety is “safe for clinical use”.
